# Literature values as cited in patent US20140050728A1, “METHODS AND COMPOSITIONS FOR INHIBITING CYCLOPHILIN D FOR THE TREATMENT AND PREVENTION OF OBESITY AND KIDNEY INDICATIONS” (BOARD OF REGENTS OF THE UNIVERSITY OF NEBRASKA, priority 2011, published 2014).
# Details: for weight loss in clinical trials: none of the trials achieved the NIH effectiveness threshold
smiles,measurement,setting,value
CCCCCCCCCCC[C@@H](C[C@@H]1OC(=O)[C@H]1CCCCCC)OC(=O)[C@H](CC(C)C)NC=O [orlistat],weight loss in clinical trials,,modest weight loss
CC(C)CC(N(C)C)C1(c2ccc(Cl)cc2)CCC1 (stereo not drawn) [sibutramine],cardiovascular risk associated with use,"banned in Europe, cautioned by U.S. FDA",increased cardiovascular risk
same,weight loss in clinical trials,,modest weight loss
